The numbers were not newly measured in US20150231081A1, “DELAYED RELEASE POSACONAZOLE TABLETS” (CADILA HEALTHCARE LIMITED, priority 2014, published 2015), which cites them from elsewhere.

Like-named read-outs stand apart in the source and are kept apart here.

Regarding `CC[C@@H]([C@H](C)O)n1ncn(-c2ccc(N3CCN(c4ccc(OC[C@@H]5CO[C@@](Cn6cncn6)(c6ccc(F)cc6F)C5)cc4)CC3)cc2)c1=O` [Posaconazole free base, 4-[4-[4-[4-[[(3R,5R)-5-(2,4-difluorophenyl)tetrahydro-5-(1H-1,2,4-triazol-1-ylmethyl)-3-furanyl]methoxy]phenyl]-1-piperazinyl]phenyl]-2-[(1S,2S)-1-ethyl-2-hydroxypropyl]-2,4-dihydro-3H-1,2,4-triazol-3-one], the solubility entry (environments where the pH is about pH 6.4 or more basic) is given as “less than 1 microgram/mL” and the solubility entry (in stomach pH) was “approximately 0.8 mg/mL”.
